{"source": "paper PMC7955031", "about": "“Facile accelerated specific therapeutic (FAST) platform develops antisense therapies to counter multidrug-resistant bacteria” (Communications Biology, 2021)", "key": {"ESBL KPN": {"system": "ESBL KPN", "experiment": "Antibiotic resistance screening (MIC)", "format": "cell-based, Klebsiella pneumoniae", "details": "for Antibiotic resistance characterization (R/S/I): 24 h", "procedure": "(§1) The clinical isolates were obtained from the lab of Nancy Madinger at the University of Colorado Anschutz campus. Clinical isolates were grown in Cation Adjusted Mueller–Hinton broth (CAMHB) (Becton, Dickinson and Company 212322) at 37 °C with 225 rpm shaking or on solid CAMHB with 1.5% agar at 37 °C. Clinical isolates were maintained as freezer stocks in […], 40% glycerol at −80 °C. Freezer stocks were streaked out onto solid CAMHB and incubated for 16 h to produce single colonies prior to experiments. For each biological replicate, a single colony was picked from solid media and grown for 16 h in liquid CAMHB prior to experiments. Non-clinical isolates, such as E. coli MG1655 (ATCC700926) and Salmonella enterica serovar Typhimurium SL1344, expressing GFP from the chromosome (rpsm::gfp)[54], were cultured in liquid 2% lysogeny broth (LB) or on 2% LB with 1.5% agar for solid plates. SL1344 cultures were supplemented with 30 µg/mL streptomycin and SL1344 strains containing plasmids pFPV (target STm) or pRG1 modified with a lacIq promotor (SL1344-holin) were supplemented with 100 µg/mL ampicillin. Freezer stocks were stored in 60% LB broth, 40% glycerol at −80 °C. Freezer stocks were streaked out onto solid LB and incubated for 16 h to produce single colonies before experiments. For biological replicates, single colonies were started in liquid LB and grown for 16 h prior to experiments. E. coli MG1655 PNA growth experiments were carried out in M9 media (1x M9 minimal media salts solution (MP Biomedicals), 2.0 mM MgSO4, and 0.1 mM CaCl2 in sterile water) with 0.4% glucose.\nSensitive/resistant breakpoints were taken from the 2016–2017 Clinical & Laboratory Standards Institute report[41] (Table S1). Liquid cultures of the clinical strains were diluted to a 0.5 McFarland standard and added to the respective antibiotic test condition. […] Strains were “sensitive” if the MIC was equal to or below the sensitive-breakpoint concentration, “resistant” if the MIC was greater than or equal to the resistant-breakpoint concentration, and “intermediate” if the MIC was in-between."}, "MDR STm": {"system": "MDR STm", "format": "cell-based, Salmonella enterica serovar Typhimurium", "details": "concentration range at which 90% of growth inhibition occurs at 24 hours, Table S2", "procedure": "as §1, with “For biological replicates, single colonies were started in liquid LB and grown for 16 h prior to experiments. E. coli MG1655 PNA growth experiments were carried out in M9 media (1x M9 minimal media salts solution (MP Biomedicals), 2.0 mM MgSO4, and 0.1 mM CaCl2 in sterile water) with 0.4% glucose.” left out"}, "MDR E. coli": {"system": "MDR E. coli", "format": "cell-based, Escherichia coli", "details": "concentration range at which 90% of growth inhibition occurs at 24 hours, Table S2", "procedure": "as §1, with “For biological replicates, single colonies were started in liquid LB and grown for 16 h prior to experiments. E. coli MG1655 PNA growth experiments were carried out in M9 media (1x M9 minimal media salts solution (MP Biomedicals), 2.0 mM MgSO4, and 0.1 mM CaCl2 in sterile water) with 0.4% glucose.” left out"}, "CRE E. coli": {"system": "CRE E. coli", "format": "cell-based, Escherichia coli", "details": "concentration range at which 90% of growth inhibition occurs at 24 hours, Table S2", "procedure": "as §1, with “For biological replicates, single colonies were started in liquid LB and grown for 16 h prior to experiments. E. coli MG1655 PNA growth experiments were carried out in M9 media (1x M9 minimal media salts solution (MP Biomedicals), 2.0 mM MgSO4, and 0.1 mM CaCl2 in sterile water) with 0.4% glucose.” left out"}, "NDM-1 KPN": {"system": "NDM-1 KPN", "format": "cell-based, Klebsiella pneumoniae", "details": "concentration range at which 90% of growth inhibition occurs at 24 hours, Table S2", "procedure": "as §1, with “For biological replicates, single colonies were started in liquid LB and grown for 16 h prior to experiments. E. coli MG1655 PNA growth experiments were carried out in M9 media (1x M9 minimal media salts solution (MP Biomedicals), 2.0 mM MgSO4, and 0.1 mM CaCl2 in sterile water) with 0.4% glucose.” left out"}}, "data": [{"molecule": "CC1(C)S[C@@H]2[C@H](NC(=O)[C@H](N)c3ccccc3)C(=O)N2[C@H]1C(=O)O", "note": "[AMP, ampicillin]", "values": [{"measurement": "Antibiotic resistance characterization (R/S/I)", "setting": "ESBL KPN", "value": "R"}]}, {"molecule": "O=C(N[C@H](CO)[C@H](O)c1ccc([N+](=O)[O-])cc1)C(Cl)Cl", "note": "[CHL, chloramphenicol]", "values": [{"measurement": "Antibiotic resistance characterization (R/S/I)", "setting": "ESBL KPN", "value": "S"}]}, {"molecule": "NC[C@H]1O[C@H](O[C@H]2[C@H](O)[C@@H](O[C@H]3O[C@H](CO)[C@@H](O)[C@H](N)[C@H]3O)[C@H](N)C[C@@H]2N)[C@H](O)[C@@H](O)[C@@H]1O", "note": "[KAN, kanamycin]", "values": [{"measurement": "Antibiotic MIC90", "setting": "MDR STm", "value": "< 16", "unit": "µg/mL"}, {"measurement": "Antibiotic MIC90", "setting": "MDR E. coli", "value": "< 16", "unit": "µg/mL"}, {"measurement": "Antibiotic MIC90", "setting": "CRE E. coli", "value": "> 64", "unit": "µg/mL"}, {"measurement": "Antibiotic MIC90", "setting": "NDM-1 KPN", "value": "> 64", "unit": "µg/mL"}, {"measurement": "Antibiotic MIC90", "setting": "ESBL KPN; ESBL KPN, concentration range at which 90% of growth inhibition occurs at 24 hours, Table S2", "value": "> 64", "unit": "µg/mL"}]}, {"molecule": "CCn1cc(C(=O)O)c(=O)c2ccc(C)nc21", "note": "[NXA, nalidixic acid]", "values": [{"measurement": "Antibiotic resistance characterization (R/S/I)", "setting": "ESBL KPN", "value": "R"}]}]}
